Laboratory results as given in patent publication EP4806894A1, “TNAP INHIBITORY COMPOUND AND USE THEREOF” (Rednvia Co., Ltd., priority 2023, dated 2025).
pIC50: −log10 of the molar value.

Columns and labels:
TNAP = molecular target: T1, TNAP (Homo sapiens, UniProt P05186); assay: TNAP inhibitory activity, colorimetric assay (alkaline phosphatase assay kit ab83369, pNPP substrate); format: biochemical; conditions: TNAP enzyme, 2 hours at room temperature, absorbance 405 nm
T1 sequence (P05186 18-502 limits assumed): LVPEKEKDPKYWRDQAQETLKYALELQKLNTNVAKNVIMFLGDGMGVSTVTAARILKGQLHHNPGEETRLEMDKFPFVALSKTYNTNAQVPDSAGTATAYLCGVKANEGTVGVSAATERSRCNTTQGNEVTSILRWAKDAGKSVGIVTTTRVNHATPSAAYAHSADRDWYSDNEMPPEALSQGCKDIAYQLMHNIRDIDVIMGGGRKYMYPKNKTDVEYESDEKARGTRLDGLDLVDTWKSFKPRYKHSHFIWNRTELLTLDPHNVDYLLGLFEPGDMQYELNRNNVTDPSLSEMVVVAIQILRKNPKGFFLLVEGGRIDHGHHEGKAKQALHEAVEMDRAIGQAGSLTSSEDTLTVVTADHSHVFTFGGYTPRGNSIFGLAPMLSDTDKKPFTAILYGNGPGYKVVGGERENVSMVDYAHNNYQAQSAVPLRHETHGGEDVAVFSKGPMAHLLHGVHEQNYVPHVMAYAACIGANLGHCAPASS

saos-2 cells = assay: Anticalcification efficacy in saos-2 cells (osteogenic medium, Alizarin Red staining); format: cell-based; conditions: Homo sapiens, 168 h, test compound 1 µM, 7 days osteogenic medium, Alizarin Red absorbance 540 nm, read-out: calcification inhibition
Method in brief: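 Saos-2 cells at 80–90% confluence induced for 7 days in osteogenic medium (DMEM, 100 nM dexamethasone, 10 mM β-glycerophosphate, 0.05 mM ascorbic acid), compound (0.5, 1, 5, 10 […]) added with each medium change. Alizarin Red staining eluted with cetylpyridinium chloride, A540 read; inhibition taken against OM-only absorbance.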

pIC50 (TNAP) | SMILES | inhibition at 1 µM (saos-2 cells) [%]
6.00 to 7.00 | COc1ccc(Br)cc1S(=O)(=O)Nc1cnc2c(c1)CN(C(=O)OCC(C)(C)C)CC2 [Example 99, neopentyl3-((5-bromo-2-methoxyphenyl)sulfonamido)-7,8-dihydro-1,6-naphthyridine-6(5H)-carboxylate] | < 0
6.00 to 7.00 | COc1ccc(OC)c(S(=O)(=O)Nc2cnc3c(c2)CN(C(=O)OCC(C)(C)C)CC3)c1 [Example 100, neopentyl3-((5-methoxy-2-methoxyphenyl)sulfonamido)-7,8-dihydro-1,6-naphthyridine-6(5H)-carboxylate] | ≥ 50
7.00 to 8.00 | COc1ccc(Cl)cc1S(=O)(=O)Nc1cnc2c(c1)CN(C(=O)OCCF)CC2 [Example 101, 2-fluoroethyl-3-((5-chloro-2-methoxyphenyl)sulfonamido)-7,8-dihydro-1,6-naphthyridine-6(5H)-carboxylate] | < 0
7.00 to 8.00 | COc1ccc(Br)cc1S(=O)(=O)Nc1cnc2c(c1)CN(C(=O)OCCF)CC2 [Example 102, 2-fluoroethyl3-((5-bromo-2-methoxyphenyl)sulfonamido)-7,8-dihydro-1,6-naphthyridine-6(5H)-carboxylate] | ≥ 50
7.00 to 8.00 | COc1ccc(OC)c(S(=O)(=O)Nc2cnc3c(c2)CN(C(=O)OCCF)CC3)c1 [Example 103, 2-fluoroethyl-3-((5-methoxy-2-methoxyphenyl)sulfonamido)-7,8-dihydro-1,6-naphthyridine-6(5H)-carboxylate] | ≥ 50
7.00 to 8.00 | COc1ccc(Cl)cc1S(=O)(=O)Nc1cnc2c(c1)CN(C(=O)NC(C)C)CC2 [Example 104, 3-((5-chloro-2-methoxyphenyl)sulfonamido)-N-isopropyl-7,8-dihydro-1,6-naphthyridine-6(5H)-carboxamide] | ≥ 50
7.00 to 8.00 | COc1ccc(F)cc1S(=O)(=O)Nc1cnc2c(c1)CN(C(=O)NC(C)C)CC2 [Example 105, 3-((5-fluoro-2-methoxyphenyl)sulfonamido)-N-isopropyl-7,8-dihydro-1,6-naphthyridine-6(5H)-carboxamide] | ≥ 50
6.00 to 7.00 | CCCCCNC(=O)N1CCc2ncc(NS(=O)(=O)c3cc(Cl)ccc3OC)cc2C1 [Example 106, 3-((5-chloro-2-methoxyphenyl)sulfonamido)-N-pentyl-7,8-dihydro-1,6-naphthyridine-6(5H)-carboxamide] | ≥ 50
7.00 to 8.00 | COc1ccc(Cl)cc1S(=O)(=O)Nc1cnc2c(c1)CN(C(=O)NCC(F)F)CC2 [Example 107, 3-((5-chloro-2-methoxyphenyl)sulfonamido)-N-(2,2-difluoroethyl)-7,8-dihydro-1,6-naphthyridine-6(5H)-carboxamide] | ≥ 50
7.00 to 8.00 | COc1ccc(Br)cc1S(=O)(=O)Nc1cnc2c(c1)CN(C(=O)NCC(F)F)CC2 [Example 108, 3-((5-bromo-2-methoxyphenyl)sulfonamido)-N-(2,2-difluoroethyl)-7,8-dihydro-1,6-naphthyridine-6(5H)-carboxamide] | ≥ 50
7.00 to 8.00 | COc1ccc(Cl)cc1S(=O)(=O)Nc1cnc2c(c1)CN(C(=O)N1CCOCC1)CC2 [Example 109, 5-chloro-2-methoxy-N-(6-(morpholine-4-carbonyl)-5,6,7,8-tetrahydro-1,6-naphthyridine-3-yl)benzenesulfonamide] | ≥ 50
7.00 to 8.00 | COc1ccc(Br)cc1S(=O)(=O)Nc1cnc2c(c1)CN(C(=O)N1CCOCC1)CC2 [Example 110, 5-bromo-2-methoxy-N-(6-(morpholine-4-carbonyl)-5,6,7,8-tetrahydro-1,6-naphthyridine-3-yl)benzenesulfonamide] | ≥ 50
6.00 to 7.00 | COc1ccc(Cl)cc1S(=O)(=O)Nc1cnc2c(c1)CN(C(C)C)CC2 [Example 112, 5-chloro-N-(6-isopropyl-5,6,7,8-tetrahydro-1,6-naphthyridine-3-yl)-2-methoxybenzenesulfonamide] | < 0
7.00 to 8.00 | COc1ccc(Cl)cc1S(=O)(=O)Nc1cnc2c(c1)CN(c1ncccn1)CC2 [Example 114, 3-5-chloro-2-methoxy-N-(6-(pyrimidine-2-yl)-5,6,7,8-tetrahydro-1,6-naphthyridine-3-yl)benzenesulfonamide] | ≥ 50
7.00 to 8.00 | COc1ccc(Cl)cc1S(=O)(=O)Nc1cnc2c(c1)CN(C(=O)Nc1ccccc1)CC2 [Example 115, 3-((5-chloro-2-methoxyphenyl)sulfonamido)-N-phenyl-7,8-dihydro-1,6-naphthyridine-6(5H)-carboxamide] | ≥ 50
7.00 to 8.00 | COc1ccc(Cl)cc1S(=O)(=O)Nc1cnc2c(c1)CN(C(=O)NCC1CC1)CC2 [Example 116, 3-((5-chloro-2-methoxyphenyl)sulfonamido)-N-(cyclopropylmethyl)-7,8-dihydro-1,6-naphthyridine-6(5H)-carboxamide] | ≥ 50
7.00 to 8.00 | COc1ccc(Cl)cc1S(=O)(=O)Nc1cnc2c(c1)CN(C(=O)NCCF)CC2 [Example 117, 3-((5-chloro-2-methoxyphenyl)sulfonamido)-N-(2-fluoroethyl)-7,8-dihydro-1,6-naphthyridine-6(5H)-carboxamide] | ≥ 50
7.00 to 8.00 | COc1ccc(Cl)cc1S(=O)(=O)Nc1cnc2c(c1)CN(C(=O)CC(C)(C)C)CC2 [Example 118, 5-chloro-N-(6-(3,3-dimethylbutanoyl)-5,6,7,8-tetrahydro-1,6-naphthyridine-3-yl)-2-methoxybenzenesulfonamide] | ≥ 50
6.00 to 7.00 | COc1ccc(-c2cnn(-c3ccncc3)c2)cc1S(=O)(=O)Nc1cnc2c(c1)C(=O)NCC2 [Example 120, 2-methoxy-N-(5-oxo-5,6,7,8-tetrahydro-1,6-naphthyridine-3-yl)-5-(1-(pyridine-4-yl)-1H-pyrazole-4-yl)benzenesulfonamide] | < 0
6.00 to 7.00 | COc1ccc(-c2c(C)nn(C)c2C)cc1S(=O)(=O)Nc1cnc2c(c1)C(=O)NCC2 [Example 121, 2-methoxy-N-(5-oxo-5,6,7,8-tetrahydro-1,6-naphthyridine-3-yl)-5-(1,3,5-trimethyl-1H-pyrazole-4-yl)benzenesulfonamide] | < 0
7.00 to 8.00 | COc1ccc(-c2cnn(C(C)(C)C)c2)cc1S(=O)(=O)Nc1cnc2c(c1)C(=O)NCC2 [Example 122, 5-(1-(tert-butyl)-1H-pyrazole-4-yl)-2-methoxy-N-(5-oxo-5,6,7,8-tetrahydro-1,6-naphthyridine-3-yl)benzenesulfonamide] | < 0
7.00 to 8.00 | CCCCn1cc(-c2ccc(OC)c(S(=O)(=O)Nc3cnc4c(c3)C(=O)NCC4)c2)cn1 [Example 123, 5-(1-butyl-1H-pyrazole-4-yl)-2-methoxy-N-(5-oxo-5,6,7,8-tetrahydro-1,6-naphthyridine-3-yl)benzenesulfonamide] | ≥ 50
6.00 to 7.00 | COc1ccc(-c2cnn(-c3ccccc3)c2)cc1S(=O)(=O)Nc1cnc2c(c1)C(=O)NCC2 [Example 124, 2-methoxy-N-(5-oxo-5,6,7,8-tetrahydro-1,6-naphthyridine-3-yl)-5-(1-phenyl-1H-pyrazole-4-yl)benzenesulfonamide] | < 0

SMILES | pIC50 (TNAP) | inhibition at 1 µM (saos-2 cells) [%]
CNC(=O)N1CCc2ncc(NS(=O)(=O)c3cc(Br)ccc3OC)cc2C1 [Example 111, 3-((5-bromo-2-methoxyphenyl)sulfonamido)-N-methyl-7,8-dihydro-1,6-naphthyridine-6(5H)-carboxamide] | 7.00 to 8.00 | ≥ 50
COc1ccc(Br)cc1S(=O)(=O)Nc1cnc2c(c1)CN(C(C)C)CC2 [Example 113, 5-bromo-N-(6-isopropyl-5,6,7,8-tetrahydro-1,6-naphthyridine-3-yl)-2-methoxybenzenesulfonamide] | 6.00 to 7.00 | < 0
COc1ccc(Br)cc1S(=O)(=O)Nc1cnc2c(c1)CN(C(=O)CC(C)(C)C)CC2 [Example 119, 5-bromo-N-(6-(3,3-dimethylbutanoyl)-5,6,7,8-tetrahydro-1,6-naphthyridine-3-yl)-2-methoxybenzenesulfonamide] | 7.00 to 8.00 | ≥ 50
